Measured values reported in patent US6677326B2 (Arakis, Ltd., priority 1999, dated 2004).

Columns and labels:
C-reactive protein (CRP) = assay: Same study: serum C-reactive protein at 08.30; type: in vivo, patients
Procedure: (§1) Serological: Serum samples were obtained at 08.30, kept on ice for up to 1 hour, separated and stored at −70° C. to measure: C-reactive protein (CRP); IL-6 concentration; IL-6 soluble receptor (IL-6sR) concentration; hyaluronate (HA) concentration.

[1] = test system: patients with rheumatoid arthritis; assay: Assessor-blind study of prednisolone 1 mg and 5 mg given at 02.00: clinical outcomes; type: in vivo; conditions: for More or Less (arthritis worse: -1 morning, 0 equal, +1 afternoon) / Pain (VAS) / Painful Joints (tender joint count, n=28) / Swollen Joints (swollen joint count, n=28) / Cln Opn (clinician opinion of condition, VAS) / EMS (morning stiffness) / Pt Opn (patient opinion of condition, VAS): mean; for Pain (VAS) / Painful Joints (tender joint count, n=28) / Swollen Joints (swollen joint count, n=28): 08.30; for Cln Opn (clinician opinion of condition, VAS) / EMS (morning stiffness) / Pt Opn (patient opinion of condition, VAS): 12.00
Source text: Patients stayed the night in hospital but were free to be up and about and to leave the hospital during the day. […] Blood samples and clinical assessments were made at 08.30 and further clinical assessments related to symptoms on the day of drug administration at 12.00 and 08.30 the following day (except the final day when this last assessment was made before departure from the hospital). […] Patients went home on Friday afternoon but returned the following Monday to repeat the procedure. […] The patient and assessor were not aware of which dose was given.
Clinical: Outcome was measured at 08.30 each day for: swollen joint count (n=28); tender joint count (n=28); pain (0.100 mm, VAS). Outcome was measured at 12.00 each day for: morning stiffness (minutes); patient opinion of condition (0-100 mm, VAS); clinician opinion of condition (0-100 mm, VAS). Outcome was measured the following day for: whether the arthritis was worse in the morning or afternoon on the previous day (−1 morning, 0 equal, +1 afternoon).
The assessor was not aware of the treatment order allocation (and probably remained blind), but no placebo tablets were used and it was possible for a patient to be un-blind.
Informed consent was obtained and the patient prescription written by a doctor not associated with trial evaluation. Medication was dispensed at 2 a.m. on each treatment day after gently waking the patient. The patient was encouraged to settle back to sleep immediately.
On the morning before medication and on each morning on the day of medication, blood samples were taken at 8.30 a.m. and outcome assessments recorded then, and at noon, as indicated above.
Symptoms, signs and laboratory results were compared within and between patients, but the main assessment was visual inspection of the overall pattern of response. Means and standard deviations were used to define variation rates and for calculating trial size for future studies. An overall assessment of practicality and the potential for more frequent (but smaller volume) blood taking was made by discussion amongst the staff and patients involved.
This patient's assessments have been included normally in the first week, but in the second week they have been used differently.

rheumatoid arthritis = conditions: daily dosage of 7.5 mg; Kirwan 1995; cited from earlier work
hyaluronate (HA) = assay: Same study: serum hyaluronate concentration at 08.30; type: in vivo, patients; parameters: unit not given beside the values; conditions: mean, serum 08.30
[2] = human, in vivo, 1.25 mg
IL-6 = assay: Same study: serum IL-6 concentration at 08.30; type: in vivo, patients
Procedure: as §1

[3] = Proposed equivalent dose in chronotherapeutic administration; conditions: proposed clinical dose
[4] = BNF 37 March 1999; non-chronotherapeutic; cited from earlier work
[5] = BNF 37 March 1999; cited from earlier work
[6] = Dose 1 mg at 02.00, Day 1, mean, serum 08.30
[7] = Dose 1 mg at 02.00, Day 2, mean, serum 08.30
[8] = Dose 1 mg at 02.00, Day 3, mean, serum 08.30
[9] = Dose 5 mg at 02.00, Day 11, mean, serum 08.30
[10] = Dose 5 mg at 02.00, Day 12, mean, serum 08.30
[11] = Dose 5 mg at 02.00, Day 13, mean, serum 08.30
[12] = 1 mg prednisolone, three patients

Compound: C[C@]12C=CC(=O)C=C1CC[C@@H]1[C@@H]2[C@@H](O)C[C@@]2(C)[C@H]1CC[C@]2(O)C(=O)CO [prednisolone]
- CRP (C-reactive protein (CRP); 1 mg prednisolone): tendency for reduction
- CRP (C-reactive protein (CRP); 5 mg prednisolone): reduced significantly
- CRP (C-reactive protein (CRP); [6]): 35.5
- CRP (C-reactive protein (CRP); [7]): 31.2
- CRP (C-reactive protein (CRP); [8]): 25.8
- CRP (C-reactive protein (CRP); [9]): 36.6
- CRP (C-reactive protein (CRP); [10]): 31.1
- CRP (C-reactive protein (CRP); [11]): 19.1
- EMS [1, 12]: statistically significantly reduced
- Pain [1, 12]: statistically significantly reduced
- clinician's opinion [1, 12]: statistically significantly reduced
- patient's opinion [1, 12]: statistically significantly reduced
- Overall results compared with Arvidson et al. ([1]; 5 mg prednisolone at 02.00): well within the range of findings published by Arvidson et al.
- More or Less (arthritis worse: -1 morning, 0 equal, +1 afternoon) ([1]; Dose 1 mg at 02.00, Day 1): −0.7
- Pain (VAS) ([1]; Dose 1 mg at 02.00, Day 1): 26.0 mm
- Painful Joints (tender joint count, n=28) ([1]; Dose 1 mg at 02.00, Day 1): 20.0
- Swollen Joints (swollen joint count, n=28) ([1]; Dose 1 mg at 02.00, Day 1): 18.7
- Cln Opn (clinician opinion of condition, VAS) ([1]; Dose 1 mg at 02.00, Day 1): 28.7 mm
- EMS (morning stiffness) ([1]; Dose 1 mg at 02.00, Day 1): 55.0 min
- Pt Opn (patient opinion of condition, VAS) ([1]; Dose 1 mg at 02.00, Day 1): 23.7 mm
- More or Less (arthritis worse: -1 morning, 0 equal, +1 afternoon) ([1]; Dose 1 mg at 02.00, Day 2): −0.7
- Pain (VAS) ([1]; Dose 1 mg at 02.00, Day 2): 20.3 mm
- Painful Joints (tender joint count, n=28) ([1]; Dose 1 mg at 02.00, Day 2): 20.3
- Swollen Joints (swollen joint count, n=28) ([1]; Dose 1 mg at 02.00, Day 2): 18.7
- Cln Opn (clinician opinion of condition, VAS) ([1]; Dose 1 mg at 02.00, Day 2): 29.3 mm
- EMS (morning stiffness) ([1]; Dose 1 mg at 02.00, Day 2): 51.7 min
- Pt Opn (patient opinion of condition, VAS) ([1]; Dose 1 mg at 02.00, Day 2): 26.7 mm
- More or Less (arthritis worse: -1 morning, 0 equal, +1 afternoon) ([1]; Dose 1 mg at 02.00, Day 3): 0.0
- Pain (VAS) ([1]; Dose 1 mg at 02.00, Day 3): 16.7 mm
- Painful Joints (tender joint count, n=28) ([1]; Dose 1 mg at 02.00, Day 3): 20.3
- Swollen Joints (swollen joint count, n=28) ([1]; Dose 1 mg at 02.00, Day 3): 18.3
- Cln Opn (clinician opinion of condition, VAS) ([1]; Dose 1 mg at 02.00, Day 3): 16.3 mm
- EMS (morning stiffness) ([1]; Dose 1 mg at 02.00, Day 3): 40.0 min
- Pt Opn (patient opinion of condition, VAS) ([1]; Dose 1 mg at 02.00, Day 3): 12.7 mm
- More or Less (arthritis worse: -1 morning, 0 equal, +1 afternoon) ([1]; Dose 5 mg at 02.00, Day 11): −0.3
- Pain (VAS) ([1]; Dose 5 mg at 02.00, Day 11): 19.7 mm
- Painful Joints (tender joint count, n=28) ([1]; Dose 5 mg at 02.00, Day 11): 19.0
- Swollen Joints (swollen joint count, n=28) ([1]; Dose 5 mg at 02.00, Day 11): 18.0
- Cln Opn (clinician opinion of condition, VAS) ([1]; Dose 5 mg at 02.00, Day 11): 27.7 mm
- EMS (morning stiffness) ([1]; Dose 5 mg at 02.00, Day 11): 30.0 min
- Pt Opn (patient opinion of condition, VAS) ([1]; Dose 5 mg at 02.00, Day 11): 19.3 mm
- More or Less (arthritis worse: -1 morning, 0 equal, +1 afternoon) ([1]; Dose 5 mg at 02.00, Day 12): −0.3
- Pain (VAS) ([1]; Dose 5 mg at 02.00, Day 12): 15.7 mm
- Painful Joints (tender joint count, n=28) ([1]; Dose 5 mg at 02.00, Day 12): 19.7
- Swollen Joints (swollen joint count, n=28) ([1]; Dose 5 mg at 02.00, Day 12): 17.3
- Cln Opn (clinician opinion of condition, VAS) ([1]; Dose 5 mg at 02.00, Day 12): 15.7 mm
- EMS (morning stiffness) ([1]; Dose 5 mg at 02.00, Day 12): 20.0 min
- Pt Opn (patient opinion of condition, VAS) ([1]; Dose 5 mg at 02.00, Day 12): 11.7 mm
- More or Less (arthritis worse: -1 morning, 0 equal, +1 afternoon) ([1]; Dose 5 mg at 02.00, Day 13): −0.7
- Pain (VAS) ([1]; Dose 5 mg at 02.00, Day 13): 16.0 mm
- Painful Joints (tender joint count, n=28) ([1]; Dose 5 mg at 02.00, Day 13): 19.7
- Swollen Joints (swollen joint count, n=28) ([1]; Dose 5 mg at 02.00, Day 13): 14.0
- Cln Opn (clinician opinion of condition, VAS) ([1]; Dose 5 mg at 02.00, Day 13): 11.7 mm
- EMS (morning stiffness) ([1]; Dose 5 mg at 02.00, Day 13): 33.3 min
- Pt Opn (patient opinion of condition, VAS) ([1]; Dose 5 mg at 02.00, Day 13): 13.3 mm
- Efficacy in rheumatoid arthritis (rheumatoid arthritis): effective
- HA (hyaluronate (HA); Dose 1 mg at 02.00, Day 1): 241.9
- HA (hyaluronate (HA); Dose 1 mg at 02.00, Day 2): 320.3
- HA (hyaluronate (HA); Dose 1 mg at 02.00, Day 3): 372.5
- HA (hyaluronate (HA); Dose 5 mg at 02.00, Day 11): 322.5
- HA (hyaluronate (HA); Dose 5 mg at 02.00, Day 12): 339.5
- HA (hyaluronate (HA); Dose 5 mg at 02.00, Day 13): 193.9
- time to Cmax or Tmax [2]: 1 to 3 h
- IL-6 (IL-6; 1 mg prednisolone): tendency for reduction
- IL-6 (IL-6; 5 mg prednisolone): reduced significantly
- IL-6 (IL-6; [6]): 28.1
- IL-6 (IL-6; [7]): 31.1
- IL-6 (IL-6; [8]): 22.8
- IL-6 (IL-6; [9]): 30.3
- IL-6 (IL-6; [10]): 18.5
- IL-6 (IL-6; [11]): 13.8

Compound: methyl prednisone
- Equivalent dose in chronotherapeutic administration, equal to 1 mg prednisolone [3]: 0.8 mg
- Dose equal to 5 mg prednisolone (Normal dosing) [4]: 4 mg

Compound: CC(=O)OCC(=O)[C@@]1(O)CC[C@H]2[C@@H]3CCC4=CC(=O)CC[C@]4(C)[C@H]3C(=O)C[C@@]21C [cortisone acetate]
- Equivalent dose in chronotherapeutic administration, equal to 1 mg prednisolone [3]: 5 mg
- Dose equal to 5 mg prednisolone (Normal dosing) [4]: 25 mg

Compound: C[C@]12CCC(=O)C=C1CC[C@@H]1[C@@H]2[C@@H](O)C[C@@]2(C)[C@H]1CC[C@]2(O)C(=O)CO [hydrocortisone]
- Equivalent dose in chronotherapeutic administration, equal to 1 mg prednisolone [3]: 4 mg
- Dose equal to 5 mg prednisolone (Normal dosing) [4]: 20 mg

Compound: CC(=O)OCC(=O)[C@@]12N=C(C)O[C@@H]1C[C@H]1[C@@H]3CCC4=CC(=O)C=C[C@]4(C)[C@H]3[C@@H](O)C[C@@]12C [deflazacort]
- Equivalent dose in chronotherapeutic administration, equal to 1 mg prednisolone [3]: 1.2 mg
- Dose equal to 5 mg prednisolone (Normal dosing) [4]: 6 mg

Compound: C[C@]12C=CC(=O)C=C1CC[C@H]1[C@@H]3C[C@@H](O)[C@](O)(C(=O)CO)[C@@]3(C)C[C@H](O)[C@@]12F [triamcinolone]
- Broadly similar dose in nasal administration [5]: 110 µg
- Equivalent dose in chronotherapeutic administration, equal to 1 mg prednisolone [3]: 0.8 mg
- Dose equal to 5 mg prednisolone (Normal dosing) [4]: 4 mg
